The text below walks through data of article PMC6956158, “In Vitro and In Vivo Assessment of Metabolic Drug Interaction Potential of Dutasteride with Ketoconazole” (Pharmaceutics, 2019).

Data set [1] is described as follows: In vivo pharmacokinetic study in rats, intravenous DUT without or with intravenous KET. Further details: species or system rat. Particulars: male, Sprague-Dawley, rat, plasma, iv, 2.5 mg/kg, n = 4. An excerpt:
(§1) The animal experiment protocols used in the present study were approved by the Pusan National University-Institutional Animal Care and Use Committee for scientific care and ethical procedures (Busan, Korea; approval date: 01/05/2018; approval number: PNU-2018-1848). Male Sprague–Dawley rats (8-week-old; approximately 250 g) were purchased from DBL Co., Ltd. (Incheon, Korea). The rats were acclimatized in a clean room of the Laboratory Animal Center of Pusan National University (Busan, Korea) for 1 week. Then, they were fasted for 12 h prior to the pharmacokinetic experiment and then anesthetized by intramuscular injection of Zoletil at a dose of 20 mg/kg. The femoral vein and artery of the rats were cannulated with a polyethylene tube (BD Medical; Franklin Lakes, NJ, USA). At approximately 4–6 h after the surgery for cannulation, an intravenous dose of DUT (2.5 mg/kg) simultaneously with or without intravenous KET (20 mg/kg) or an oral dose of DUT (5 mg/kg) simultaneously with or without intravenous KET (20 mg/kg) was administered to the rats. Drugs were dissolved in a vehicle consisting of dimethyl sulfoxide, ethanol, and polyethylene glycol 400 at a ratio of 10:5:85 (v/v/v). Blood (approximately 200 μL) was collected in heparin pre-treated microcentrifuge tubes via the femoral artery at 0, 1, 5, 15, 30, 60, 120, 180, 240, 360, 480, and 1200 min after the intravenous dose and at 0, 5, 15, 30, 60, 120, 150, 180, 240, 360, 480, and 1200 min after the oral dose. Following centrifugation of the blood samples at 3000× g at 4 °C for 10 min [19], 100 μL aliquots of plasma were stored at −80 °C.
(§2) The half maximal inhibitory concentration (IC50) of KET for the inhibition of the DUT metabolism was determined by the nonlinear regression analysis (GraphPad Prism ver. 5.01; GraphPad Software Inc., San Diego, CA, USA) based on the following Hill equation: y = Min + Max−Min/1 + (x/IC50)^-P where Max and Min are the initial and final y value, respectively, and the exponent P represents the Hill coefficient. Peak plasma concentration (Cmax) and time to reach Cmax (Tmax) were read directly from the observed data. Non-compartmental analysis was conducted to estimate pharmacokinetic parameters such as total area under plasma concentration versus time curve from time zero to time of last sampling (AUClast), total area under plasma concentration versus time curve from time zero to infinity (AUCinf), total plasma clearance (CL), volume of distribution at steady state (Vss), and terminal half-life (t1/2) using the NCA200 and 201 models of WinNonlin ver. 3.1 (Certara USA Inc., Princeton, NJ, USA).

Data set [2] can be described thus: In vivo pharmacokinetic study in rats, oral DUT without or with KET. Further details: species or system rat. Particulars: male, Sprague-Dawley, rat, plasma, po, 5 mg/kg, n = 4.
Source text: as §1, with “([…])” for “(20 mg/kg) or an oral dose of DUT (5 mg/kg) simultaneously with or without intravenous KET (20 mg/kg)”
as §2

Data set [3] is described as follows: Stability in rat plasma (QC samples). In kind it is in vitro ADME. Particulars: n = 5; for Stability (percent drug remaining), Autosampler: 10 °C for 24 h in the autosampler; for Stability (percent drug remaining), Bench-Top: room temperature for 3 h; for Stability (percent drug remaining), Freeze-Thaw: three freezing and thawing cycles; for Stability (percent drug remaining), Long-Term: −20 °C for 30 days. How it is done: The bioanalytical method proposed herein for the simultaneous determination of DUT and H-DUT was fully validated on the basis of the US FDA guideline. The selectivity of the method was evaluated by comparing chromatograms of the analytes (DUT, H-DUT, and internal standard) in blank rat plasma, blank rat plasma spiked with the analytes, and rat plasma sample obtained from the in vivo rat pharmacokinetic study. Further, the existence of potential interferences at the acquisition windows of the analytes was checked. The linearity of the method was evaluated by adding increasing amounts of DUT and H-DUT to the blank plasma. To construct calibration curves (n = 5), the peak area ratios of DUT or H-DUT to the internal standard (y-axis) were plotted against the nominal concentration ratios of DUT or H-DUT (10–1000 ng/mL) to the internal standard (400 ng/mL) (x-axis), and then, linear regression analysis was performed. The sensitivity was assessed by estimating the LLOQ (signal-to-noise [S/N] ratio > 5). The peaks of the analytes at the LLOQ should be discrete, identifiable, and reproducible with acceptable precision (<20%) and accuracy (within 80–120%). The extraction recovery, matrix effect, dilution integrity, and stability (under bench-top, freeze–thaw, post-preparative, and long-term conditions) in addition to the intra-assay (five different samples) and inter-assay (five different runs) precision and accuracy for each analyte were determined at the LLOQ and three different QC levels as described in the US FDA guidelines and in previous studies.

The subject of the next data set is DUT metabolism in RLM. Put plainly: Inhibition of DUT metabolism by KET in RLM. Type of data set: in vitro ADME, rat. As to conditions: RLM 1 mg/mL, DUT 5 μM, 90 min. How it is done: (§3) To investigate the metabolic interaction potential between DUT and KET, the disappearance of DUT (5 μM) in RLM and HLM was determined under the absence and presence of KET at various concentrations ranging from 1 to 5000 nM. A microsomal reaction mixture was prepared as follows (total volume: 0.2 mL): 1 mM NADPH, 10 mM MgCl2, substrate (DUT), and inhibitor (KET), RLM or HLM (1 mg/mL), and 50 mM phosphate buffer. […] The unbound fractions of DUT in rat plasma, RLM, human plasma, and HLM were measured using a rapid equilibrium dialysis (RED) device (Thermo Fisher Scientific, Inc., Waltham, MA, USA) as described in a previous study. […] The fraction unbound was calculated as the ratio of the drug concentrations in the “buffer” chamber to those in the “sample” chamber. The blood-to-plasma concentration ratio (RB) of DUT was determined as described previously. […] The concentrations of DUT in the plasma sample were determined by the validated HPLC analysis.
(§4) The half maximal inhibitory concentration (IC50) of KET for the inhibition of the DUT metabolism was determined by the nonlinear regression analysis (GraphPad Prism ver. 5.01; GraphPad Software Inc., San Diego, CA, USA) based on the following Hill equation: y = Min + Max−Min/1 + (x/IC50)^-P where Max and Min are the initial and final y value, respectively, and the exponent P represents the Hill coefficient. […]

In a further data set the test system is DUT metabolism in HLM. Nature of the data set: Inhibition of DUT metabolism by KET in HLM. Type of data set: in vitro ADME, human. How it is done:
as §3, §4

Details of data set [4]: method as in ref 12 (supplement). Particulars: ref 12 (supplement); cited from earlier work.
Details of data set [5]: method as in ref 13 (supplement). Particulars: ref 13 (supplement); cited from earlier work.
Where [6] appears, read: intravenous DUT 2.5 mg/kg with intravenous KET 20 mg/kg.
The mark [7] stands for this setting: intravenous DUT 2.5 mg/kg, DUT alone.
The mark [8] stands for this setting: oral DUT 5 mg/kg with oral KET (20 mg/kg).

Regarding `C[C@]12C=CC(=O)N[C@@H]1[C@H](O)C[C@@H]1[C@@H]2CC[C@]2(C)[C@@H](C(=O)Nc3cc(C(F)(F)F)ccc3C(F)(F)F)CC[C@@H]12` [H-DUT, 6β-hydroxydutasteride], the AUC(0-t) (in general, exposure summed from dosing to a finite time, without extrapolation to infinity) was 1070 ng·h/mL in data set [1] (setting [6]); 2130 ng·h/mL in data set [1] (setting [7]); 630 ng·h/mL in data set [2] (setting [8]); 1590 ng·h/mL in data set [2] (oral DUT 5 mg/kg, DUT alone). The Cmax – broadly, the peak of the concentration-time curve – in data set [1] (setting [6]) was found to be 116 ± 4 ng/mL; in data set [1] (setting [7]), 141 ± 17 ng/mL; in data set [2] (setting [8]) it was 62.8 ± 12.3 ng/mL; in data set [2] (oral DUT 5 mg/kg, DUT alone), 103 ± 20 ng/mL. Moreover, the “Stability (percent drug remaining), Autosampler” value was found to be 104 ± 1% in data set [3] (HQC 750 ng/mL), 103 ± 4% in data set [3] (LLOQ 10 ng/mL), 97.1 ± 0.8% in data set [3] (LQC 30 ng/mL) and 103 ± 4% in data set [3] (MQC 150 ng/mL). Besides, the “Stability (percent drug remaining), Bench-Top” value in data set [3] (HQC 750 ng/mL) amounted to 101 ± 0%; in data set [3] (LLOQ 10 ng/mL), 102 ± 4%; in data set [3] (LQC 30 ng/mL), 104 ± 9%; in data set [3] (MQC 150 ng/mL), 99.0 ± 1.4%. Also, the “Stability (percent drug remaining), Freeze-Thaw” value was found to be 101 ± 1% in data set [3] (HQC 750 ng/mL), 101 ± 7% in data set [3] (LLOQ 10 ng/mL), 99.0 ± 2.3% in data set [3] (LQC 30 ng/mL) and 103 ± 3% in data set [3] (MQC 150 ng/mL). For the same compound, the “Stability (percent drug remaining), Long-Term” value is recorded as 106 ± 1% in data set [3] (HQC 750 ng/mL), 96.1 ± 4.7% in data set [3] (LLOQ 10 ng/mL), 95.1 ± 3.7% in data set [3] (LQC 30 ng/mL) and 98.7 ± 1.5% in data set [3] (MQC 150 ng/mL).
In the case of `CC(=O)N1CCN(c2ccc(OCC3COC(Cn4ccnc4)(c4ccc(Cl)cc4Cl)O3)cc2)CC1` (centres unmarked) [KET, ketoconazole], the concentration for half-maximal inhibition (IC50) (usually the concentration at which inhibition is half-maximal) in the data set with DUT metabolism in RLM was 77.3 ± 11.1 nM; in the data set on DUT metabolism in HLM (HLM 1 mg/mL, DUT 5 μM, 90 min), 54.9 ± 15.6 nM. Further, at DUT metabolism in HLM (HLM, fu,mic,KET × IC50 / (S/Km + 1), competitive inhibition assumed, read-out: Ki (unbound inhibition constant)), the inhibition constant (Ki) (in general, a measure of affinity in units of concentration, obtained from inhibition or displacement) is 48.5 nM. The “fu,mic,KET, unbound fraction in HLM” value in data set [4] is listed as 0.97. In addition, the “Imax,u, maximum unbound plasma concentration” value in data set [5] is 0.0913 µM.
